Assay results reported in patent publication US8178548B2, “Anti-infective agents and uses thereof” (priority 2007, dated 2012).
Like-named read-outs stand apart in the source and are kept apart here.

Experiments:
[1] = biological target: T1, HCV polymerase 1A (Δ21 NS5B, H77) (Hepatitis C virus genotype 1a, UniProt P27958); experiment: biochemical
T1 construct: 20 to 50 nM Δ21 NS5B
Protocol: (§1) Either two-fold serial dilutions (fractional inhibition assay) or a narrower range of dilutions spanning the IC50 of the inhibitor (tight binding assay) of the inhibitors were incubated with 20 mM Tris-Cl pH 7.4, 2 mM MnCl2, 1 mM dithiothreitol, 1 mM ethylene diamine tetraacetic acid (EDTA), 60 to 125 μM GTP and 20 to 50 nM Δ21 NS5B (HCV Strain 1B (BK, Genbank accession number M58335, or H77, Genbank accession number AF011751)) for 15 min at room temperature. The reaction was initiated by the addition of 20 μM CTP, 20 μM ATP, 1 μM ^3H-UTP (10 mCi/umol), 5 nM template RNA and 0.1 U/μl RNase inhibitor (RNasin, Promega), and allowed to proceed for 2 to 4 h at room temperature. Reaction volume was 50 μl. The reaction was terminated by the addition of 1 volume of 4 mM spermine in 10 mM Tris-Cl pH 8.0, 1 mM EDTA. After incubation for at least 15 min at room temperature, the precipitated RNA was captured by filtering through a GF/B filter (Millipore) in a 96 well format. The filter plate was washed three times with 200 μl each of 2 mM spermine, 10 mM Tris-Cl pH 8.0, 1 mM EDTA, and 2 times with ethanol. After air-drying, 30 μl of Microscint 20 scintillation cocktail (Packard) was added to each well, and the retained cpm were determined by scintillation counting. […] Retained cpm were plotted vs. inhibitor concentration and fit to equation 1 using non-linear regression (ref. 1) to obtain the IC50 values: Retained cpm=A[sqrt{(IC50+It−Et)^2+4*IC50*Et}−(IC50+It−Et)]
(§2) Ref. Morrison, J. F. and S. R. Stone. 1985. Approaches to the study and analysis of the inhibition of enzymes by slow- and tight-binding inhibitors. Comments Mol. Cell. Biophys. 2: 347-368.
(§3) The sequence of the template RNA used was: 5′-[…] […] […] […] […] […] […] […] […] […] […] […] […] […] […] […] […]-3′ (SEQ ID NO:1).

[2] = biological target: T2, HCV polymerase 1B (Δ21 NS5B, HCV Strain 1B BK) (Hepatitis C virus genotype 1b, UniProt P26663); experiment: biochemical
T2 construct: 20 to 50 nM Δ21 NS5B
T2 sequence (P26663 2420-2989, stated change not applied): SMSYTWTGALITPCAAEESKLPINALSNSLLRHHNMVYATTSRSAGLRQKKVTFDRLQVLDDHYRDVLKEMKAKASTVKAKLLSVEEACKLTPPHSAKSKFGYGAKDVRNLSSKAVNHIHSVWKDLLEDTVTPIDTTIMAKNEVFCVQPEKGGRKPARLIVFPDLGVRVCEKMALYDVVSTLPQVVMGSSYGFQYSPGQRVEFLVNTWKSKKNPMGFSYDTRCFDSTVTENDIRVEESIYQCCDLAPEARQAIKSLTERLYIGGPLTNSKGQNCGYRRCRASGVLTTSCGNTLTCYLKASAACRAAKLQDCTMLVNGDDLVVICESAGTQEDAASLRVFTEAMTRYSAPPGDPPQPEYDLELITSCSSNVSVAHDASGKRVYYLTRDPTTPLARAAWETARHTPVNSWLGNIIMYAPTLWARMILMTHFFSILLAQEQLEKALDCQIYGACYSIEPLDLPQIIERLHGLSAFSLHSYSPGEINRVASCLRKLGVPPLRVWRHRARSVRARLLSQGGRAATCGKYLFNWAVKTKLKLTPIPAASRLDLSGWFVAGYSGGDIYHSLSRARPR
Protocol: as §1, §2, §3

[3] = test system: genotype 1a-H77 subgenomic replicon cell line; experiment: HCV Polymerase Replicon Assay, genotype 1a-H77 (luciferase reporter); format: cell-based; conditions: read-out: EC50 1a
[4] = test system: genotype 1b-Con1 subgenomic replicon cell line; experiment: HCV Polymerase Replicon Assay, genotype 1b-Con1 (luciferase reporter); format: cell-based; conditions: read-out: EC50 1b
[5] = Hepatitis C virus, 72 h, replicon 1a-H77, luciferase, three days
[6] = Hepatitis C virus, 72 h, replicon 1b-Con1, luciferase, three days

T1 sequence (P27958 2421-2990, stated change not applied): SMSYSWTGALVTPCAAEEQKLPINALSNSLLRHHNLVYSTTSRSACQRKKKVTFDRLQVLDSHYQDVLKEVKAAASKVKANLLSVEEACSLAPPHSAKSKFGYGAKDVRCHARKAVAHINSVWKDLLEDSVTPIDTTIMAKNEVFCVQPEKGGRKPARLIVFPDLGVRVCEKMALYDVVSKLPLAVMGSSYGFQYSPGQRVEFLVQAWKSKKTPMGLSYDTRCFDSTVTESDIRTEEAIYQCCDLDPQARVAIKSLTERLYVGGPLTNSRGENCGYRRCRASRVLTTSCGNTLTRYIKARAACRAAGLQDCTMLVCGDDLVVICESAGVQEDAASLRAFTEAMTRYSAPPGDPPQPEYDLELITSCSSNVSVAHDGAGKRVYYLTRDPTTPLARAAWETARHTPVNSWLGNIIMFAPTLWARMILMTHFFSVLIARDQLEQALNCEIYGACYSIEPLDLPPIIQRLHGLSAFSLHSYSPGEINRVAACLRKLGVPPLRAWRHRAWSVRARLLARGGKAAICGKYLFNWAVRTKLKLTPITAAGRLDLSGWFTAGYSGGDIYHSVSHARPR

Row | Compound | IC50 ([1]; HCV polymerase 1a, read-out: IC50 1a) [nM] | IC50 ([2]; HCV polymerase 1b, read-out: IC50 1b) [nM] | EC50 ([3]; replicon 1a-H77, luciferase, three days) [nM] | EC50 ([4]; replicon 1b-Con1, luciferase, three days) [nM] | IC50 [1] [nM] | IC50 [2] [nM] | EC50 [3, 5] [nM] | EC50 [4, 6] [nM] | EC50 ([3]; Hepatitis C virus, 72 h) [nM] | EC50 ([4]; Hepatitis C virus, 72 h) [nM]
1 | COc1cc(NS(C)(=O)=O)ccc1/C=C/c1cc(N2CCC(=O)NC2=O)cc(C(C)(C)C)c1OC [IA-L1-1.27, N-(4-{(E)-2-[3-tert-Butyl-5-(dioxo-tetrahydro-pyrimidin-1-yl)-2-methoxy-phenyl]-vinyl}-3-methoxy-phenyl)-methanesulfonamide] | < 10 | 10 to 100 | 10 to 100 | < 10 | – | – | – | – | – | –
2 | COc1c(CCc2ccc(NS(C)(=O)=O)cc2)cc(N2CCC(=O)NC2=O)cc1C(C)(C)C [IA-L5-2-1.1, N-(4-(3-tert-butyl-5-(2,4-dioxotetrahydropyrimidin-1(2H)-yl)-2-methoxyphenethyl)phenyl)methanesulfonamide] | – | – | – | – | 10 to 100 | 10 to 100 | 100 to 1000 | 10 to 100 | – | –
3 | CC(C)(C)c1cc(CCc2ccc(NS(C)(=O)=O)cc2)cc(N2CCC(=O)NC2=O)c1 [IA-L5-2-1.2, N-(4-(3-tert-butyl-5-(2,4-dioxotetrahydropyrimidin-1(2H)-yl)phenethyl)phenyl)methane sulfonamide] | – | – | – | – | 10 to 100 | 10 to 100 | 100 to 1000 | 100 to 1000 | – | –
4 | COc1c(C2CC2c2ccc(NS(C)(=O)=O)cc2)cc(N2CCC(=O)NC2=O)cc1C(C)(C)C (stereo not shown) [IA-L8-1.1, N-(4-(2-(3-tert-butyl-5-(2,4-dioxotetrahydropyrimidin-1(2H)-yl)-2-methoxyphenyl)cyclopropyl)phenyl)methanesulfonamide] | – | – | – | – | 100 to 1000 | 100 to 1000 | 100 to 1000 | 100 to 1000 | – | –
5 | COc1c(/C=C/c2ccc(NS(C)(=O)=O)cc2)cc(-n2ccc(=O)[nH]c2=O)cc1C(C)(C)C [IB-L1-1.1, (E)-N-(4-(3-tert-butyl-5-(2,4-dioxo-3,4-dihydropyrimidin-1(2H)-yl)-2-methoxystyryl)phenyl)methanesulfonamide] | – | – | – | – | < 10 | < 10 | – | – | < 10 | < 10
6 | COc1c(/C=C/c2ccc(NS(C)(=O)=O)cc2C(=O)O)cc(-n2ccc(=O)[nH]c2=O)cc1C(C)(C)C [IB-L1-1.4, (E)-2-(3-tert-butyl-5-(2,4-dioxo-3,4-dihydropyrimidin-1(2H)-yl)-2-methoxystyryl)-5-(methylsulfonamido)benzoic Acid] | – | – | – | – | < 10 | < 10 | – | – | 10 to 100 | < 10
7 | COc1c(/C=C/c2ccc(NS(C)(=O)=O)c(F)c2)cc(-n2ccc(=O)[nH]c2=O)cc1C(C)(C)C [IB-L1-1.5, (E)-N-(4-(3-tert-butyl-5-(2,4-dioxo-3,4-dihydropyrimidin-1(2H)-yl)-2-methoxystyryl)-2-fluorophenyl)methanesulfonamide] | – | – | – | – | < 10 | < 10 | – | – | 10 to 100 | < 10
8 | COc1c(/C=C/c2ccc(NS(C)(=O)=O)cc2C=O)cc(-n2ccc(=O)[nH]c2=O)cc1C(C)(C)C [IB-L1-1.6, N-(4-{(E)-2-[3-tert-Butyl-5-(2,4-dioxo-3,4-dihydro-2H-pyrimidin-1-yl)-2-methoxy-phenyl]-vinyl}-3-formyl-phenyl)-methanesulfonamide] | – | – | – | – | < 10 | 10 to 100 | – | – | < 10 | < 10
9 | COC(=O)c1cc(NS(C)(=O)=O)ccc1/C=C/c1cc(-n2ccc(=O)[nH]c2=O)cc(C(C)(C)C)c1OC [IB-L1-1.7, (E)-methyl 2-(3-tert-butyl-5-(2,4-dioxo-3,4-dihydropyrimidin-1(2H)-yl)-2-methoxystyryl)-5-(methylsulfonamido)benzoate] | – | – | – | – | < 10 | 10 to 100 | – | – | < 10 | < 10
10 | COc1c(/C=C/c2ccc(NS(C)(=O)=O)cc2C=NO)cc(-n2ccc(=O)[nH]c2=O)cc1C(C)(C)C [IB-L1-1.8, N-[4-{(E)-2-[3-tert-Butyl-5-(2,4-dioxo-3,4-dihydro-2H-pyrimidin-1-yl)-2-methoxy-phenyl]-vinyl}-3-(hydroxyimino-methyl)-phenyl]-methanesulfonamide] | – | – | – | – | < 10 | 10 to 100 | – | – | 10 to 100 | < 10
11 | COCCNC(=O)c1cc(NS(C)(=O)=O)ccc1/C=C/c1cc(-n2ccc(=O)[nH]c2=O)cc(C(C)(C)C)c1OC [IB-L1-1.9, 2-{(E)-2-[3-tert-Butyl-5-(2,4-dioxo-3,4-dihydro-2H-pyrimidin-1-yl)-2-methoxy-phenyl]-vinyl}-5-methanesulfonylamino-N-(2-methoxy-ethyl)-benzamide] | – | – | – | – | < 10 | 10 to 100 | – | – | 10 to 100 | < 10
12 | COc1c(/C=C/c2ccc(NS(C)(=O)=O)cc2CO)cc(-n2ccc(=O)[nH]c2=O)cc1C(C)(C)C [IB-L1-1.10, (E)-N-(4-(3-tert-butyl-5-(2,4-dioxo-3,4-dihydropyrimidin-1(2H)-yl)-2-methoxystyryl)-3-(hydroxymethyl)phenyl)methanesulfonamide] | – | – | – | – | < 10 | 10 to 100 | – | – | < 10 | < 10
13 | CCOC(=O)c1cc(NS(C)(=O)=O)ccc1/C=C/c1cc(-n2ccc(=O)[nH]c2=O)cc(C(C)(C)C)c1OC [IB-L1-1.11, 2-{(E)-2-[3-tert-Butyl-5-(2,4-dioxo-3,4-dihydro-2H-pyrimidin-1-yl)-2-methoxy-phenyl]-vinyl}-5-methanesulfonylamino-benzoic acid ethyl ester] | – | – | – | – | < 10 | 10 to 100 | – | – | 10 to 100 | < 10
14 | CC(C)(C)c1cc(-n2ccc(=O)[nH]c2=O)cc(/C=C/c2ccc(NS(C)(=O)=O)cc2)c1Cl [IB-L1-1.12, N-(4-{(E)-2-[3-tert-Butyl-2-chloro-5-(2,4-dioxo-3,4-dihydro-2H-pyrimidin-1-yl)-phenyl]-vinyl}-phenyl)-methanesulfonamide] | – | – | – | – | < 10 | 10 to 100 | 10 to 100 | 10 to 100 | – | –
15 | COCc1cc(NS(C)(=O)=O)ccc1/C=C/c1cc(-n2ccc(=O)[nH]c2=O)cc(C(C)(C)C)c1OC [IB-L1-1.13, (E)-N-(4-(3-tert-butyl-5-(2,4-dioxo-3,4-dihydropyrimidin-1(2H)-yl)-2-methoxystyryl)-3-(methoxymethyl)phenyl)methanesulfonamide] | – | – | – | – | < 10 | 10 to 100 | – | – | 10 to 100 | < 10
16 | COc1c(/C=C/c2ccc(NS(C)(=O)=O)cc2C(=O)N(C)C)cc(-n2ccc(=O)[nH]c2=O)cc1C(C)(C)C [IB-L1-1.14, 2-{(E)-2-[3-tert-Butyl-5-(2,4-dioxo-3,4-dihydro-2H-pyrimidin-1-yl)-2-methoxy-phenyl]-vinyl}-5-methanesulfonylamino-N,N-dimethyl-benzamide] | – | – | – | – | < 10 | 10 to 100 | – | – | 10 to 100 | < 10
17 | COc1c(/C=C/c2cc(F)c(NS(C)(=O)=O)cc2C)cc(-n2ccc(=O)[nH]c2=O)cc1C(C)(C)C [IB-L1-1.15, (E)-N-(4-(3-tert-butyl-5-(2,4-dioxo-3,4-dihydropyrimidin-1(2H)-yl)-2-methoxystyryl)-2-fluoro-5-methylphenyl)methanesulfonamide] | – | – | – | – | < 10 | 10 to 100 | – | – | < 10 | < 10
18 | COc1c(/C=C/c2ccc(NS(C)(=O)=O)cc2-c2ncc[nH]2)cc(-n2ccc(=O)[nH]c2=O)cc1C(C)(C)C [IB-L1-1.16, (E)-N-(4-(3-tert-butyl-5-(2,4-dioxo-3,4-dihydropyrimidin-1(2H)-yl)-2-methoxystyryl)-3-(1H-imidazol-2-yl)phenyl)methanesulfonamide] | – | – | – | – | < 10 | 10 to 100 | – | – | 100 to 1000 | 10 to 100
19 | CNC(=O)c1cc(NS(C)(=O)=O)ccc1/C=C/c1cc(-n2ccc(=O)[nH]c2=O)cc(C(C)(C)C)c1OC [IB-L1-1.17, 2-{(E)-2-[3-tert-butyl-5-(2,4-dioxo-3,4-dihydro-2H-pyrimidin-1-yl)-2-methoxy-phenyl]-vinyl}-5-methanesulfonylamino-N-methyl-benzamide] | – | – | – | – | < 10 | 10 to 100 | – | – | 10 to 100 | < 10
